# Reference: patent US20210275518A1, “METHODS OF USING REBASTINIB IN THE TREATMENT OF DISORDERS” (Deciphera Pharmaceuticals, LLC, priority 2020, published 2021)
# Experiments:
# [1] = tested on: triple negative breast cancer; assay: Phase 1b/2 rebastinib + paclitaxel, Part 2 Cohort 1 (RECIST v1.1); assay type: in vivo, human
# From the text: Upon determination of the RP2D, Part 2 is initiated to dose up to 165 evaluable patients using the RP2D across five indication-specific cohorts. A Simon's two-stage design is applied to Part 2 to further evaluate the safety, tolerability, and preliminary efficacy of rebastinib in combination with paclitaxel in triple-negative breast (Cohort 1), inflammatory breast (Cohort 2), ovarian (Cohort 3), endometrial adenocarcinoma (Cohort 4), and gynecologic carcinosarcoma (Cohort 5) cancers. Each cohort initially enrolls up to 18 evaluable patients in the first stage. Patients must receive at least 1 dose of the combination and have 1 post-baseline assessment (including assessment of clinical progression) or be discontinued prior to the postbaseline disease assessment due to an AE at least possibly related to rebastinib, to be considered evaluable. Tumor response is assessed according to Response Evaluation Criteria in Solid Tumors (RECIST) Version 1.1. The decision to enroll patients beyond the first stage is based on response assessments obtained after the first post-dose response assessment of the last patient enrolled in the first stage of a cohort. […] If ≤4 responses are seen in a cohort, the cohort will be terminated. If >4 responses are seen prior to the last evaluable patient in the first stage, expanding the cohort may be triggered earlier. Enrollment in each cohort will pause between the first and second stage of the Simon two-stage for evaluation of response. Patients will receive study treatment until they develop progressive disease, experience unacceptable toxicity, or withdraw consent.
# mesothelioma = assay: Phase 1b/2 rebastinib + paclitaxel, Part 1 patient with mesothelioma; assay type: in vivo, human; settings: one patient; 50 mg BID rebastinib + paclitaxel 80 mg/m^2, reduced at Cycle 4 to 25 mg BID + 60 mg/m^2; two prior lines carboplatin and alimta; Cycle 8, Day 1
# Method: The study consists of two parts (Part 1 and Part 2). In Part 1, patients were assigned to one of two pre-defined dose levels of rebastinib (50 or 100 mg BID) in combination with paclitaxel administered by intravenous (IV) infusion at 80 mg/m^2. Paclitaxel is to be administered by IV infusion at 80 mg/m^2 over approximately 60 minutes on Day 1, Day 8 and Day 15 of repeated 28-day cycles. Rebastinib is to be administered orally prior to the paclitaxel infusion.
# Part 1 included treatment of a patient with mesothelioma with 50 mg BID rebastinib and paclitaxel at 80 mg/m^2. The patient had two prior lines of treatment with carboplatin and alimta.
# [2] = both Cycle 3, Day 1 and Cycle 5, Day 1
compound,measurement,setting,value
CNC(=O)c1cc(Oc2ccc(NC(=O)Nc3cc(C(C)(C)C)nn3-c3ccc4ncccc4c3)c(F)c2)ccn1 [rebastinib],Patients with stable disease,"[1]; Cycle 3, Day 1",one
same,Patients with partial response,"[1]; Cycle 8, Day 1",one
same,Patients with partial response,[1]; [2],one
same,Patients with stable disease,[1]; [2],two
same,Tumor response,mesothelioma,partial response
